Source: publication PMC6349869, “The palladacycle complex AJ-5 induces apoptotic cell death while reducing autophagic flux in rhabdomyosarcoma cells” (Cell Death Discovery, 2019)

Key:
Format in all cases: cell-based, human
[1] = tested on: SW1353, SW872, SW982, HT1080 and MG-63 cells; test: Selectivity index of sarcoma subtype cell lines (MTT); details: relative to the combined IC50 values for normal fibroblasts (FG0 and DMB); SW1353, SW872, SW982, HT1080, MG-63
Procedure: Cells were seeded in 96-well plates and treated the next day with a range of AJ-5 concentrations (0.1–1.0 μM) or vehicle ([…]) for 48 h. Cell viability was measured using the 3-(4,5-dimethylthiazol-2-yl)-2,5-diphenyl-trazolium bromide (MTT) assay (11465007001; Sigma Aldrich) according to the manufacturer’s instructions. Mean cell viability was calculated as a percentage of the mean vehicle control. At least three independent experiments in quadruplicate were performed from which the half maximal inhibitory concentration (IC50) was determined using GraphPad Prism version 6.0 (GraphPad Software, California, USA). The selectivity index (SI) was determined by dividing the IC50 of a normal cell line by the IC50 of a cancer cell line.
Fig. S2 AJ-5 is cytotoxic in a range of sarcoma subtypes. […] Graphs show mean cell viability as a percentage of vehicle control ± SEM for each concentration of AJ-5 determined from three independent experiments performed in quadruplicate. […] (B) Selectivity indices (SIs) were determined for each cell line by dividing the IC50 of each non-malignant cell line (Fig. 1C) including normal fibroblast cell lines (FG0 and DMB) and mesenchymal stem cell line (A10021501) by the IC50 of each sarcoma cell line. […] Colonies were stained with crystal violet and images from three independent repeats were quantified using the ImageJ plugin ColonyArea. […]

RH30 and RD cells = test: Annexin V-FITC/PI assay; details: IC50
Procedure: Cells were seeded, trypsinized, washed and counted as described for cell cycle analysis. The FITC Annexin V/Dead Cell Apoptosis kit (V13242; Thermo Fisher Scientific) was used according to the manufacturer's instructions. A negative control of unstained cells and positive controls of cells treated with 3% formaldehyde for 30 min on ice and stained with either PI or Annexin V were used to gate the flow cytometer for viable, early apoptotic, late apoptotic, and necrotic cell populations. Samples were subjected to FACS analyses as described for cell cycle analysis. Data were obtained and analysed using CellQuest Pro version 5.2.1. software.

SW872 cells = test: MTT cell viability assay, SW872 liposarcoma; details: 48 h
[2] = tested on: LC3II in RH30 and RD cells; test: LC3II western blotting; details: 0.1 µM or IC50, 24 and 48 h
Procedure: Cells were lysed at 4 °C in whole-cell lysis buffer (0.125 M Tris-HCl pH 6.8, 4% SDS, 0.2% glycerol, 0.1% β-mercaptoethanol and a pinch of bromophenol blue) and boiled for 10 min. Proteins were resolved by SDS-PAGE (6–15% gels) and transferred to Hybond ECL membranes (Amersham, UK). The membranes were incubated with primary antibodies: rabbit polyclonal antibodies to phospho-histone H2A.X (Ser139) (#2577), phospho-chk2 (Thr68) (#221), phospho-p38 MAPK (Thr180/Tyr182) (#9211), cleaved caspase-3 (Asp175) (#9661), PARP (#9542), caspase-9 (#9502), LC3B (#2775), p38 MAPK (#9212), rabbit monoclonal antibody to cleaved caspase-7 (Asp198) (D6H1) (#8438), mouse monoclonal antibodies to phospho-ATM (Ser1981) (D6H9) (#5883), Cyclin B1 (V152) (#4135), Caspase-8 (1C12) (#9746), SQSTM1/p62 (D5L7G) (#88588) from Cell Signaling Technology (Massachusetts, USA); mouse monoclonal antibody to p53 (DO-1) (sc-126), rabbit polyclonal antibodies to p21 (C-19) (sc-397), cyclin A (H-432) (sc-751), cyclin B1 (H-433)(sc-752), PARP-1 (H-250) (sc-7150) from Santa Cruz Biotechnology (Texas, USA); rabbit polyclonal antibody to p38 MAP kinase (M0800) from Sigma Aldrich. […] Densitometry readings were obtained using ImageJ v1.50i[58] and protein expression levels were represented as a ratio of protein of interest/p38 loading control normalized to the vehicletreated control sample where appropriate. […]

Q: CC(C)c1cccc(C(C)C)c1[N+]1=Cc2cccc[c]2[Pd-2]1([Cl])[P+](CC[P+](c1ccccc1)(c1ccccc1)[Pd-2]1([Cl])[c]2ccccc2C=[N+]1c1c(C(C)C)cccc1C(C)C)(c1ccccc1)c1ccccc1 (stereo not shown) [AJ-5] was tested. Which “Selectivity index (SI)” value [1] did it give?
A: Its value is over 2.

Q: What about the “Cell death (Annexin V-FITC/PI)” value (RH30 and RD cells) of the same compound?
A: The value was “induces apoptotic and necrotic cell death”.

Q: And the IC50 (SW872 cells)?
A: The IC50 was under 300 nM.

Q: What about the LC3II protein level [2] of the same compound?
A: Its LC3II protein level is “induced in both RMS cell lines in a time- and dose-dependent manner”.
